Data published in US10590106B2, “Certain chemical entities, compositions, and methods” (NeuPharma, Inc., priority 2012, dated 2020).

What was measured:
BRAF V600E = BRAF V600E (Homo sapiens (Human), UniProt P15056, V600E); assay: Inhibitory activity against kinase BRAF V600E, Z'-LYTE method (Invitrogen); type: biochemical; settings: 1 μM compound; read-out: Inhibition (% inhibition at 1 μM) against BRAF V600E
In short: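 FRET-based Z′-LYTE peptide-phosphorylation assay in 50 mM HEPES pH 7.5, 0.01% BRIJ-35, 10 mM MgCl2, 1 mM EGTA; kinase reaction 60 min at room temperature, then 60 min development before fluorescence read. IC50 from concentration vs % inhibition; single-point % inhibition tested at 1 μM.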

KDR (VEGFR2) = KDR (VEGFR2) (Homo sapiens (Human), UniProt P35968); assay: Inhibitory activity against kinase KDR, Z'-LYTE method (Invitrogen); type: biochemical; settings: 1 μM compound; read-out: Inhibition (% inhibition at 1 μM) against KDR
In short: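 Human KDR (VEGFR2) kinase inhibition was measured with Invitrogen's Z′-LYTE® method. A 2× mixture of KDR and Tyr 01 peptide is made in 50 mM HEPES pH 7.5, 0.01% BRIJ-35, 10 mM MgCl2, 1 mM EGTA. Each 10 μL reaction holds 0.5-11.7 ng enzyme and 2 μM Tyr 01. It incubates for 1 hour, then 5 μL of Development Reagent B diluted 1:256 is added.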

BRAF = BRAF (Homo sapiens (Human), UniProt P15056); assay: Inhibitory activity against kinase BRAF, Z'-LYTE method (Invitrogen); type: biochemical; settings: 1 μM compound
Protocol: Inhibitory activities Inhibitory activities of compounds against BRAF, and BRAF V600E were measured by Invitrogen using Z′-LYTE® Method as briefly described in the following. 4× Test compounds are dissolved in 1% DMSO. […] ATP solutions are diluted to a 4×ATP working concentration in Kinase Buffer (50 mM HEPES pH 7.5, 0.01% BRIJ-35, 10 mM MgCl2, 1 mM EGTA). Reaction started by 30-second shaking of mixture consisting of 2.5 μL 4× test compound, […] and 2.5 μL 4×ATP Solution on Bar-coded Corning, low volume NBS, black 384-well plate (Corning Cat. #3676). Then the mixture was incubated for 60-minute at room temperature for the kinase reaction, followed by addition of 5 μL of a 1:1024 dilution of development reagent A and 30-second plate shake. The mixture was then incubated for another 60-minute at room temperature for development reaction. Fluorescence was read by plate reader. IC50 was calculated by plotting the concentration of compound vs the percentage of inhibition in treated wells using GraphPad Prism 5.
Table 2 and 3 show % inhibition at 1 μM of several compounds of the invention against BRAF and BRAF V600E, respectively, using Z′-LYTE® method.

A375 cells = assay: Inhibition of cancer cell growth, MTT or MTS assay, A375; type: cell-based; settings: Homo sapiens, A-375; 72 h incubation
In short: (§1)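 Cells in RPMI 1640 with 10% FBS were seeded at ~2000 (A375) or 4000 (A549, Colo205) per well, grown 24 h, then exposed to compound 72 h at 1% final DMSO. Read-out by MTT (570 nm) or MTS (490 nm). IC50 from concentration vs percent inhibition, triplicates.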

A549 cells = assay: Inhibition of cancer cell growth, MTT or MTS assay, A549; type: cell-based; settings: Homo sapiens, 72 h incubation
In short: as §1

Sequence of KDR (VEGFR2) (P35968 20-1356): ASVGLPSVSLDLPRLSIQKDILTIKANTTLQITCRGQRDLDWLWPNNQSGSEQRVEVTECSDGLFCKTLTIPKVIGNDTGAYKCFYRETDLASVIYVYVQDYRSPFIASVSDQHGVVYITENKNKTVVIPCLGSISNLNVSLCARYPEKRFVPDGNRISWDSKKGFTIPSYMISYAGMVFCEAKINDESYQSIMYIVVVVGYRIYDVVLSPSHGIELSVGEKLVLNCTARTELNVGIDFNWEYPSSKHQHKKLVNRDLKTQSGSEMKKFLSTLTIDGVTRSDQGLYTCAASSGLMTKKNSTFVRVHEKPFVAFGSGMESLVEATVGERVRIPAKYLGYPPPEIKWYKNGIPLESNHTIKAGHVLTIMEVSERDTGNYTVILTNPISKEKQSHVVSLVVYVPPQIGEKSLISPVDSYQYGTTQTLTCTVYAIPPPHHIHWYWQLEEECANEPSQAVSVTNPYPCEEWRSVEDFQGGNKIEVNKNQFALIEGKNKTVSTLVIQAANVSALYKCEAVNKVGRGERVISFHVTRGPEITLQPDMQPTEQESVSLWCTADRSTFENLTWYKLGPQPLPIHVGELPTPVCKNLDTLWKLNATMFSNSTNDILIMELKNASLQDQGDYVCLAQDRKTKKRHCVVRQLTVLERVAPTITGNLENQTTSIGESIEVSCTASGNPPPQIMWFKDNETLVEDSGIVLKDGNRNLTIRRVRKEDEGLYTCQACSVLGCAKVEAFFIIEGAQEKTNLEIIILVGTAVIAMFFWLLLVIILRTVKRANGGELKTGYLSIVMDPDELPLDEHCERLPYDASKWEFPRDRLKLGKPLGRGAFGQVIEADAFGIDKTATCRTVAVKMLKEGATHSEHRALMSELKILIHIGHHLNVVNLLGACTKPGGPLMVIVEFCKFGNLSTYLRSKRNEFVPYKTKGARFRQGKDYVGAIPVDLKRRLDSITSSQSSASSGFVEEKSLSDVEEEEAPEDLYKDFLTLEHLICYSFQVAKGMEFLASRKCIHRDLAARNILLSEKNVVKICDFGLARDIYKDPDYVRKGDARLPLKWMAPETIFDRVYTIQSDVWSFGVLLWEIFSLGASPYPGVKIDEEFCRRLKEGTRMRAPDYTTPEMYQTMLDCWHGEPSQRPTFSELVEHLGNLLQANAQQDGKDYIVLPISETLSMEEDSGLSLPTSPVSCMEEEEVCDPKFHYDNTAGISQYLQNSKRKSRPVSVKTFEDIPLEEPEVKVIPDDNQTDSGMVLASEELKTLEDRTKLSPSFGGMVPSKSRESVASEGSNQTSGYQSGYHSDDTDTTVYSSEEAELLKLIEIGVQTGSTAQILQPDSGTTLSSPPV
Sequence of BRAF V600E (P15056 whole entry V600E): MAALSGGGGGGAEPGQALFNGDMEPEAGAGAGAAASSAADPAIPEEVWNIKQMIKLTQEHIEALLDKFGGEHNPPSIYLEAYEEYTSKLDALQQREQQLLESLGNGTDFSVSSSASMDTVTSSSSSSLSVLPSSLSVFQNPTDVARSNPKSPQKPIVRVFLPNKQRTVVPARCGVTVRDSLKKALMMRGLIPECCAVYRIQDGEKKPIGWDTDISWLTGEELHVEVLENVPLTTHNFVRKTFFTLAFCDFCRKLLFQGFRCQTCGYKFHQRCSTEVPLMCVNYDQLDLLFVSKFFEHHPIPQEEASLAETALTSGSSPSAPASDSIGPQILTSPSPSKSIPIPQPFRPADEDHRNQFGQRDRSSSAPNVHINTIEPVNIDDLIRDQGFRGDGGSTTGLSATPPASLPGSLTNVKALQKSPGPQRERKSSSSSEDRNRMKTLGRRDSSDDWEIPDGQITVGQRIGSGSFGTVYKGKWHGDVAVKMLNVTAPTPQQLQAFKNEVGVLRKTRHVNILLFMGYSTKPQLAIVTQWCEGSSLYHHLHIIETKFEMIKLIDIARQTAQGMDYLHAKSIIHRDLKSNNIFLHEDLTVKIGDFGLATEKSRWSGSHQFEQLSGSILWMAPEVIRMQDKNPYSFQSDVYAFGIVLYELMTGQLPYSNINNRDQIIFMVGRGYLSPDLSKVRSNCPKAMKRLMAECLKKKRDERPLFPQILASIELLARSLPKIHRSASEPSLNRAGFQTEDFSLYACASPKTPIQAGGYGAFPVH
Sequence of BRAF (P15056 whole entry): as the sequence (P15056 whole entry V600E) above, with E600V counted along it

Compound	inhibition at 1 µM (BRAF V600E)	inhibition at 1 µM (KDR (VEGFR2))	inhibition at 1 µM (BRAF)	IC50 (A375 cells)	IC50 (A549 cells)
O=C(Nc1cccc(F)c1)Nc1cccc(Oc2ccc3nccnc3c2)c1 [Compound C002, 1-(3-fluorophenyl)-3-(3-(quinoxalin-6-yloxy)phenyl)urea]	70 to 89%	70 to 89%	70 to 89%	> 5 µM	
O=C(Nc1cccc(Oc2ccc3ncc(N4CCOCC4)nc3c2)c1)Nc1ccc(Cl)c(C(F)(F)F)c1 [Compound C049, 1-(4-chloro-3-(trifluoromethyl)phenyl)-3-(3-((3-morpholinoquinoxalin-6-yl)oxy)phenyl)urea]	70 to 89%	> 89%	70 to 89%		2 to 5 µM
O=C(Nc1cccc(Oc2ccc3nccnc3c2)c1)c1ccc(Cl)c(C(F)(F)F)c1 [Compound C006, 4-chloro-N-(3-(quinoxalin-6-yloxy)phenyl)-3-(trifluoromethyl)benzamide]	> 89%	70 to 89%	< 70%	> 5 µM	> 5 µM
O=C(Nc1cccc(Oc2ccc3ncc(N4CCNCC4)nc3c2)c1)Nc1ccc(F)c(F)c1 [Compound C036, 1-(3,4-difluorophenyl)-3-(3-((3-(piperazin-1-yl)quinoxalin-6-yl)oxy)phenyl)urea]	> 89%	> 89%	> 89%		> 5 µM
O=C(Nc1ccc(F)c(F)c1)Nc1ccc(F)c(Oc2ccc3ncc(N4CCNCC4)nc3c2)c1 [Compound C061, 1-(3,4-difluorophenyl)-3-(4-fluoro-3-((3-(piperazin-1-yl)quinoxalin-6-yl)oxy)phenyl)urea]	> 89%	70 to 89%	> 89%		> 5 µM
O=C(Nc1cccc(F)c1)Nc1ccc(F)c(Oc2ccc3ncc(N4CCNCC4)nc3c2)c1 [Compound C059, 1-(4-fluoro-3-((3-(piperazin-1-yl)quinoxalin-6-yl)oxy)phenyl)-3-(3-fluorophenyl)urea]	> 89%	70 to 89%	> 89%		2 to 5 µM
O=C(Nc1ccc(F)cc1)Nc1cccc(Oc2ccc3ncc(N4CCNCC4)nc3c2)c1 [Compound C038, 1-(4-fluorophenyl)-3-(3-((3-(piperazin-1-yl)quinoxalin-6-yl)oxy)phenyl)urea]	> 89%	> 89%	> 89%		> 5 µM
O=C(Nc1ccc(F)cc1)Nc1ccc(Oc2ccc3nccnc3c2)cc1F [Compound C094, 1-(2-fluoro-4-(quinoxalin-6-yloxy)phenyl)-3-(4-fluorophenyl)urea]	> 89%		70 to 89%	> 5 µM	
O=C(Nc1ccc(Oc2ccc3nccnc3c2)cc1)Nc1cccc(F)c1 [Compound C074, 1-(3-fluorophenyl)-3-(4-(quinoxalin-6-yloxy)phenyl)urea]	70 to 89%		< 70%	1 to 5 µM	2 to 5 µM
O=C(Nc1ccc(Oc2ccc3ncc(N4CCOCC4)nc3c2)cc1)Nc1cccc(Cl)c1 [Compound C081, 1-(3-chlorophenyl)-3-(4-((3-morpholinoquinoxalin-6-yl)oxy)phenyl)urea]	> 89%	> 89%	< 70%		> 5 µM
O=C(Nc1cccc(Oc2ccc3ncc(N4CCNCC4)nc3c2)c1)Nc1ccc(Cl)c(C(F)(F)F)c1 [Compound C041, 1-(4-chloro-3-(trifluoromethyl)phenyl)-3-(3-((3-(piperazin-1-yl)quinoxalin-6-yl)oxy)phenyl)urea]	> 89%	> 89%	> 89%		< 2 µM
O=C(Nc1cccc(Oc2ccc3ncc(N4CCOCC4)nc3c2)c1)Nc1ccc(F)c(F)c1 [Compound C044, 1-(3,4-difluorophenyl)-3-(3-((3-morpholinoquinoxalin-6-yl)oxy)phenyl)urea]	> 89%	70 to 89%	70 to 89%		> 5 µM
O=C(Nc1ccc(Cl)cc1)Nc1cccc(Oc2ccc3ncc(N4CCNCC4)nc3c2)c1 [Compound C051, 1-(4-chlorophenyl)-3-(3-((3-(piperazin-1-yl)quinoxalin-6-yl)oxy)phenyl)urea]	> 89%	> 89%	> 89%		2 to 5 µM
O=C(Nc1cc(F)cc(F)c1)Nc1cccc(Oc2ccc3ncc(N4CCNCC4)nc3c2)c1 [Compound C039, 1-(3,5-difluorophenyl)-3-(3-((3-(piperazin-1-yl)quinoxalin-6-yl)oxy)phenyl)urea]	> 89%	70 to 89%	> 89%		> 5 µM
O=C(Nc1ccc(Cl)cc1)Nc1ccc(F)c(Oc2ccc3ncc(N4CCNCC4)nc3c2)c1 [Compound C064, 1-(4-chlorophenyl)-3-(4-fluoro-3-((3-(piperazin-1-yl)quinoxalin-6-yl)oxy)phenyl)urea]	> 89%	> 89%	> 89%		2 to 5 µM
O=C(Nc1cc(F)cc(F)c1)Nc1ccc(F)c(Oc2ccc3ncc(N4CCNCC4)nc3c2)c1 [Compound C062, 1-(3,5-difluorophenyl)-3-(4-fluoro-3-((3-(piperazin-1-yl)quinoxalin-6-yl)oxy)phenyl)urea]	> 89%	70 to 89%	> 89%		2 to 5 µM
O=C(Nc1ccc(F)cc1)Nc1ccc(F)c(Oc2ccc3ncc(N4CCNCC4)nc3c2)c1 [Compound C060, 1-(4-fluoro-3-((3-(piperazin-1-yl)quinoxalin-6-yl)oxy)phenyl)-3-(4-fluorophenyl)urea]	> 89%	> 89%	> 89%		2 to 5 µM
O=C(Nc1cccc(Oc2ccc3ncc(N4CCNCC4)nc3c2)c1)Nc1cccc(C(F)(F)F)c1 [Compound C040, 1-(3-((3-(piperazin-1-yl)quinoxalin-6-yl)oxy)phenyl)-3-(3-(trifluoromethyl)phenyl)urea]	> 89%	> 89%	> 89%		2 to 5 µM
O=C(Nc1ccc(Cl)cc1)Nc1ccc(Oc2ccc3nccnc3c2)cc1F [Compound C096, 1-(4-chlorophenyl)-3-(2-fluoro-4-(quinoxalin-6-yloxy)phenyl)urea]	> 89%		< 70%	> 5 µM	
O=C(Nc1cccc(C(F)(F)F)c1)Nc1ccc(F)c(Oc2ccc3ncc(N4CCNCC4)nc3c2)c1 [Compound C065, 1-(4-fluoro-3-((3-(piperazin-1-yl)quinoxalin-6-yl)oxy)phenyl)-3-(3-(trifluoromethyl)phenyl)urea]	> 89%	> 89%	> 89%		2 to 5 µM
O=C(Nc1ccc(F)c(F)c1)Nc1ccc(F)c(Oc2ccc3ncc(N4CCOCC4)nc3c2)c1 [Compound C052, 1-(3,4-difluorophenyl)-3-(4-fluoro-3-((3-morpholinoquinoxalin-6-yl)oxy)phenyl)urea]	> 89%	70 to 89%	70 to 89%	1 to 5 µM	
O=C(Nc1cccc(Cl)c1)Nc1ccc(F)c(Oc2ccc3ncc(N4CCNCC4)nc3c2)c1 [Compound C063, 1-(3-chlorophenyl)-3-(4-fluoro-3-((3-(piperazin-1-yl)quinoxalin-6-yl)oxy)phenyl)urea]	> 89%	> 89%	> 89%		2 to 5 µM
O=C(Nc1cccc(Cl)c1)Nc1cccc(Oc2ccc3ncc(N4CCNCC4)nc3c2)c1 [Compound C050, 1-(3-chlorophenyl)-3-(3-((3-(piperazin-1-yl)quinoxalin-6-yl)oxy)phenyl)urea]	> 89%	> 89%	> 89%		2 to 5 µM
